Where “and” joins values, the source holds several entries; their conditions need not be identical. Identical values can stand only once. Like-named read-outs stand apart in the source and are kept apart here.
Experiments:
[1] = system: P. falciparum asexual blood stages; assay: microbe, parasite or virus in culture; conditions: Plasmodium falciparum
Description: The asexual blood stages of P. falciparum parasites of the 3D7 strain (Malaria Research and Reference Reagent Resource Center, Manassas, VA, USA) were cultured in group B human RBCs at 3% hematocrit, which was kept throughout the experiments, and incubated in RPMIc. Parasites were maintained at 37 °C under an atmosphere of 5% O2, 5% CO2, and 90% N2. […] The parasites were then cultured under standard conditions for 48 h, allowing for a complete replication cycle. After the incubation period, 3 µL of culture from each well was mixed with 197 µL of PBS containing 0.1 µM Syto 11 (Thermo Fisher Scientific, Inc.) to obtain a final concentration of 1 × 10^6 to 10 × 10^6 cells/mL. Parasitemia levels were measured using an LSRFortessa flow cytometer equipped with a standard configuration of four lasers and 20 parameters. Single-cell populations were identified on a forward-side scatter plot. […] The inhibition data were then transformed using sigmoidal fitting to determine IC50.
For stage arrest assays, P. falciparum cultures were tightly synchronized in schizont stages by repeated treatment with 70% Percoll (GE Healthcare, Chicago, IL, USA) [26, 27]. […] Pictures were taken with a Nikon Eclipse 50i microscope equipped with a DS-Fi1 camera (Nikon Corporation, Tokyo, Japan).

[2] = system: P. berghei ookinete development; assay: Ex vivo gametocyte-to-ookinete transition inhibition (ookinete maturation) assay; assay type: cell-based, Plasmodium berghei; conditions: ex vivo, 24 h at 21 °C
Description: Eight days before ookinete production, 100 µL of a red blood cell (RBC) pellet containing the Plasmodium berghei circumsporozoite protein and thrombospondin-related adhesive protein (TRAP)-related protein (CTRP)-green fluorescent protein (GFP) strain (CTRP-GFP, which expresses GFP when reaching ookinete stage, kindly provided by Inga Siden-Kiamos) in cryopreservation solution (RBC pellet:RPMI:30% glycerol in water, 1:1:2) was administered intraperitoneally (i.p.) to a BALB/c mouse (Charles River Laboratories, Wilmington, MA, USA). […] The effect of drugs on gametocyte-to-ookinete conversion was assessed in three independent replicas by plating 120 µL of each culture treated with serial dilutions of the compounds in 96-well plates and incubated for 24 h at 21 °C with orbital shaking at 50 rpm (modified from). Finally, samples diluted 1:100 in PBS were analyzed in an LSRFortessa flow cytometer (BD Biosciences, Franklin Lakes, NJ, USA) set up with the 4 lasers, 20 parameters standard configuration. The GFP positive cell population was counted (λexcitation: 488 nm; λemission: 525/40 nm) using BD FACSDiva software 6.1.3 (BD Biosciences) for data collection and Flowing Software 2.5.1 (Turku Center for Biotechnology, Turku, Finland) for analysis.

[3] = Cytotoxicity assay in Caco-2 (resazurin); assay type: cell-based; conditions: human, read-out: Caco-2 inhibition (CC50)
[4] = Cytotoxicity assay in HEP-G2 (MTT); assay type: cell-based; conditions: human, Hep-G2 cells, read-out: HEP-G2 inhibition (CC50)
Description: THP-1 human acute monocytic leukemia cells and NCI-H460 human lung carcinoma cells were grown in RPMI supplemented with 10% FBS. Hep-G2 human hepatocellular carcinoma cells were cultured in Eagle’s minimum essential medium (EMEM) supplemented with 10% FBS. A2780 human ovarian carcinoma cells were grown in RPMI supplemented with 10% FBS and 2 mM L-glutamine. MCF-7 human breast adenocarcinoma cells were cultured in EMEM containing 2 mM L-glutamine and Earle’s balanced salt solution adjusted with 1.5 g/L sodium bicarbonate, 0.1 mM non-essential amino acids, and 1 mM sodium pyruvate and supplemented with 10% FBS. […] Except for Caco-2 and HUVEC, inhibition of cell growth was evaluated using a protocol based on monitoring the transformation into formazan of the tetrazolium salt of MTT (3-(4,5-dimethylthiazol-2-yl)-2,5-diphenyltretrazolium bromide) by metabolically active cells. […] After 96 further h of incubation in the same conditions, 10 µL of a 5 mg/mL MTT solution in PBS was added to each sample, and the incubation was resumed for another 4 h. […] The absorbance measurement range was framed between one sample containing 4000 cells in plain growth medium (to determine the stable cell concentration) and another sample containing an equal cell number in growth medium supplemented with growth factors (to measure the maximum cell growth at 96 h).

[5] = system: 3D7 P. falciparum; assay: Parasite-killing profile (parasite viability after 10x IC50); assay type: cell-based, Plasmodium falciparum; conditions: treatment for 24 h with 10× IC50
Description: After the treatment, the drug was removed and the culture diluted 1/3 and re-established in RBCs labeled with carboxyfluorescein diacetate succinimidyl ester (CFDA-SE, Life Technologies) to a 2% hematocrit in order to evaluate the reinfection capacity of the treated parasites. CFDA-SE-labelled erythrocytes were prepared by incubating 1% hematocrit in RPMI containing 10 μM CFDA-SE at 37 °C for 30 min, after which they were washed and maintained at 50% hematocrit at 4 °C for up to 24 h before use. Parasites were grown for 48 h, a complete replication cycle, in standard culturing conditions (5% O2, 5% CO2, and 90% N2 at 37 °C). After this incubation time, parasitemia was assessed by two-color flow cytometry (Attune NxT Flow Cytometer, Thermo Fisher Scientific, Inc.) using Hoechst 33342 to stain nuclei. Hoechst 33342 fluorescence signal was detected by exciting samples at 405 nm and collecting the emission with a 440/50-nm bandpass filter (VL1), whereas CFDA-SE was excited at 488 nm and detected with a 530/30 nm filter. Samples were analyzed using the Attune NxT software package 3.2.1, and parasite viability was plotted as the percentage of infected CFDA-SE-stained erythrocytes, using as reference untreated samples of the initial inoculum after 48 h of incubation with labeled erythrocytes.

[6] = system: liver stages of P. berghei in Huh7; conditions: human hepatoma cell line Huh7; read-out: IC50 against liver stages of P. berghei; cited from earlier work
[7] = cited from earlier work
[8] = human hepatocytes; cited from earlier work

Work on `CCN(CC)c1ccc(/C=C/c2cc[n+](CCCCCCCCCC[n+]3ccc(/C=C/c4ccc(N(CC)CC)cc4)c(C)c3)cc2C)cc1` [YAT2150] yielded an IC50 ([1]; 3D7, 48 h, read-out: IC50 in P. falciparum asexual blood stages) of 90.5 ± 7 nM, an IC80 ([1]; 3D7, read-out: IC80 (stage arrest assay)) of 200 nM and an IC50 ([1]; 2 h, read-out: IC50 ± SEM) of 224 ± 27 nM. The “concentration that abolished ookinete production” value [2] was “ca. 0.5 µM”, the CC50 at 48 h [3] was 18200 ± 2600 nM and the CC50 at 96 h [4] was 2540 ± 80 nM. For the same compound, the parasite survival [5] was 8.5%, the IC50 [6] was 780 nM and the “Transport through Caco-2 AB (Papp)” value ([7]; apical to basolateral) was 207.6 ± 11.6 ^7 nm/s. For the same compound, the “Transport through Caco-2 Efflux ratio” value [7] was 0.5 and 0.48 ± 0.03 ^7, the “Hepatocyte stability (% remaining after 2 h)” value [8] was 70.4 ^7% and the “Hepatocyte stability T1/2” value [8] was 277.3 ^7 min.
